Experimental data taken from US20230279025A1, “KRAS G12D INHIBITORS” (Mirati Therapeutics, Inc., priority 2020, published 2023).
pIC50: −log10 of the molar value.

These compounds were tested against KRas G12D (Homo sapiens (Human), UniProt P01116, G12D) (assay: KRas G12D Binding Assay (TR-FRET displacement of Cy5 labelled tracer)). Details: GDP-loaded KRAS G12D (amino acids 1:169), 60 minute incubation at 22° C.
Protocol: After a 60 minute incubation at 22° C., the reaction was measured using a PerkinElmer EnVision multimode plate reader via TR-FRET dual wavelength detection, and the percent of control (POC) calculated using a ratiometric emission factor. […] The POC values were fit to a 4-parameter logistic curve and the IC50 value was determined as the concentration where the curve crosses 50 POC.
ND stands for “not determined.”

KRas G12D, sequence (P01116 other isoform, or with tags, fused parts or gaps G12D): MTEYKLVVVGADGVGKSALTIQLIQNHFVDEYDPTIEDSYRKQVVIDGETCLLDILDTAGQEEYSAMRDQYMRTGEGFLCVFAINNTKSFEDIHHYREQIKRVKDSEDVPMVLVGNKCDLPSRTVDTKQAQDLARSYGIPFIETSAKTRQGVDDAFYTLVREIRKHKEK

| SMILES | pIC50 |
| --- | --- |
| Cc1cccc2cccc(-c3ncc4c(N5C[C@H]6CC[C@@H](C5)N6)nc(OCC56CCCN5CCC6)nc4c3F)c12 [Example 334, 4-((1R,5S)-3,8-diazabicyclo[3.2.1]octan-3-yl)-8-fluoro-7-(8-methylnaphthalen-1-yl)-2-((tetrahydro-1H-pyrrolizin-7a(5H)-yl)methoxy)pyrido[4,3-d]pyrimidine] | 8.00 |
| Fc1c(-c2cccc3cccc(C4CC4)c23)ncc2c(N3C[C@H]4CC[C@@H](C3)N4)nc(OCC34CCCN3CCC4)nc12 [Example 335, 4-((1R,5S)-3,8-diazabicyclo[3.2.1]octan-3-yl)-7-(8-cyclopropylnaphthalen-1-yl)-8-fluoro-2-((tetrahydro-1H-pyrrolizin-7a(5H)-yl)methoxy)pyrido[4,3-d]pyrimidine] | 7.59 |
| CN1CCC[C@H]1COc1nc(N2CC3CCC(C2)N3)c2cnc(-c3c(Cl)c(O)cc4ccccc34)c(F)c2n1 [Example 337, 4-(4-(3,8-diazabicyclo[3.2.1]octan-3-yl)-8-fluoro-2-(((S)-1-methylpyrrolidin-2-yl)methoxy)pyrido[4,3-d]pyrimidin-7-yl)-3-chloronaphthalen-2-ol] | 8.66 |
| N#CC[C@@H]1C[C@@H]2CN(c3nc(OCC45CCCN4CCC5)nc4c(F)c(-c5cc(O)cc6ccccc56)ncc34)C[C@H]1N2 [Example 338, 2-((1R,5S,6S)-3-(8-fluoro-7-(3-hydroxynaphthalen-1-yl)-2-((tetrahydro-1H-pyrrolizin-7a(5H)-yl)methoxy)pyrido[4,3-d]pyrimidin-4-yl)-3,8-diazabicyclo[3.2.1]octan-6-yl)acetonitrile] | 7.48 |
| Oc1ccc(OC(F)(F)F)c(-c2ncc3c(N4C[C@H]5CC[C@@H](C4)N5)nc(OCC45CCCN4CCC5)nc3c2F)c1 [Example 341, 3-(4-((1R,5S)-3,8-diazabicyclo[3.2.1]octan-3-yl)-8-fluoro-2-((tetrahydro-1H-pyrrolizin-7a(5H)-yl)methoxy)pyrido[4,3-d]pyrimidin-7-yl)-4-(trifluoromethoxy)phenol] | 9.15 |
| Fc1c(-c2c(C(F)(F)F)ccc3[nH]ncc23)ncc2c(N3C[C@H]4CC[C@@H](C3)N4)nc(OCC34CCCN3CCC4)nc12 [Example 344, 4-((1R,5S)-3,8-diazabicyclo[3.2.1]octan-3-yl)-8-fluoro-2-((tetrahydro-1H-pyrrolizin-7a(5H)-yl)methoxy)-7-(5-(trifluoromethyl)-1H-indazol-4-yl)pyrido[4,3-d]pyrimidine] | 7.96 |
| Fc1c(-c2cccc3cccc(OC(F)(F)F)c23)ncc2c(N3C[C@H]4CC[C@@H](C3)N4)nc(OCC34CCCN3CCC4)nc12 [Example 345, 4-((1R,5S)-3,8-diazabicyclo[3.2.1]octan-3-yl)-8-fluoro-2-((tetrahydro-1H-pyrrolizin-7a(5H)-yl)methoxy)-7-(8-(trifluoromethoxy)naphthalen-1-yl)pyrido[4,3-d]pyrimidine] | 7.97 |
| Fc1c(-c2cccc3cccc(OC(F)F)c23)ncc2c(N3C[C@H]4CC[C@@H](C3)N4)nc(OCC34CCCN3CCC4)nc12 [Example 346, 4-((1R,5S)-3,8-diazabicyclo[3.2.1]octan-3-yl)-7-(8-(difluoromethoxy)naphthalen-1-yl)-8-fluoro-2-((tetrahydro-1H-pyrrolizin-7a(5H)-yl)methoxy)pyrido[4,3-d]pyrimidine] | 7.98 |
| CC(C)c1ccccc1-c1ncc2c(N3CC4CCC(C3)N4)nc(OCC34CCCN3C[C@H](F)C4)nc2c1F (stereo partly drawn) [Example 348, 4-((1R,5S)-3,8-diazabicyclo[3.2.1]octan-3-yl)-8-fluoro-2-((2-fluorotetrahydro-1H-pyrrolizin-7a(5H)-yl)methoxy)-7-(2-isopropylphenyl)pyrido[4,3-d]pyrimidine] | 7.81 |
| Fc1c(-c2c(Cl)ccc3ccccc23)ncc2c(N3C[C@H]4CC[C@@H](C3)N4)nc(OCC34CCCN3CCC4)nc12 [Example 349, 4-((1R,5S)-3,8-diazabicyclo[3.2.1]octan-3-yl)-7-(2-chloronaphthalen-1-yl)-8-fluoro-2-((tetrahydro-1H-pyrrolizin-7a(5H)-yl)methoxy)pyrido[4,3-d]pyrimidine] | 6.25 |
